In ChEMBL document CHEMBL1140953, “Anthracene based compounds as new L-type Ca2+ channel blockers: design, synthesis, and full biological profile” (J Med Chem, 2009) one finds Activity, IC50 and inhibition data, which are given here for twelve compounds.

As a reminder, the IC50 is the midpoint of a concentration-inhibition curve. One may read the inhibition as how much of the control response was suppressed.

Data set [1] can be described thus: Vasorelaxant activity in Sprague-Dawley rat caudal artery ring assessed as reduction of KCl-induced muscle contractions at 50 uM relative to control. The format is functional. On the set-up: scale not given: the % may be the effect or the level left.
The species named for data set [2] is Rattus norvegicus. Kind of data set: Vasorelaxant activity in Sprague-Dawley rat caudal artery ring assessed as reduction of caffeine-induced muscle contractions at 50 uM. It is filed as functional, tissue-based.
Data set [3] is filed under the species Rattus norvegicus. Kind of data set: Vasorelaxant activity in Sprague-Dawley rat caudal artery ring assessed as reduction of phenylephrine-induced muscle contractions at 50 uM in Ca2+-free physiological salt solution. The format is functional, tissue-based.
The target in data set [4] is T1, Voltage-gated L-type calcium channel (Rattus norvegicus, UniProt P22002+Q02485+P27732). Kind of data set: Inhibition of L-type calcium channel in Sprague-Dawley rat caudal artery smooth muscle cells by whole cell patch clamp method. A general note: The patch-clamp technique gives a direct electrical read-out from membranes.
Data set [5] has as its target T1, Voltage-gated L-type calcium channel. Kind of data set: Inhibition of L-type calcium channel in Sprague-Dawley rat caudal artery smooth muscle cells assessed as decrease in amplitude at 15 uM by whole cell patch clamp method. The note with it: TDE = time-dependent effect.
For data set [6] the target is unchanged. Put plainly: Inhibition of L-type calcium channel in Sprague-Dawley rat caudal artery smooth muscle cells assessed as inhibition of peak inward current at 15 uM by whole cell patch clamp method at -20 to 40 mV voltage.
For data set [7] the target is unchanged. Kind of data set: Inhibition of L-type calcium channel in Sprague-Dawley rat caudal artery smooth muscle cells at 15 uM by whole cell patch clamp method at 2 Hz.
Data set [8] has the same target. Kind of data set: Inhibition of L-type calcium channel in Sprague-Dawley rat caudal artery smooth muscle cells at 15 uM by whole cell patch clamp method at 4 Hz.
Data set [9] can be described thus: Displacement of (+)-[3H]isradipine from L-type calcium channel in rabbit skeletal muscle cells. On the set-up: species or system Oryctolagus cuniculus.
The target of data set [10] is Voltage-dependent L-type calcium channel subunit alpha-1C (Mus musculus, UniProt Q01815). Kind of data set: Inhibition of mouse brain L-type Cav1.2 channel by radioligand binding assay.
Sequence of Voltage-dependent L-type calcium channel subunit alpha-1C (Q01815 whole entry): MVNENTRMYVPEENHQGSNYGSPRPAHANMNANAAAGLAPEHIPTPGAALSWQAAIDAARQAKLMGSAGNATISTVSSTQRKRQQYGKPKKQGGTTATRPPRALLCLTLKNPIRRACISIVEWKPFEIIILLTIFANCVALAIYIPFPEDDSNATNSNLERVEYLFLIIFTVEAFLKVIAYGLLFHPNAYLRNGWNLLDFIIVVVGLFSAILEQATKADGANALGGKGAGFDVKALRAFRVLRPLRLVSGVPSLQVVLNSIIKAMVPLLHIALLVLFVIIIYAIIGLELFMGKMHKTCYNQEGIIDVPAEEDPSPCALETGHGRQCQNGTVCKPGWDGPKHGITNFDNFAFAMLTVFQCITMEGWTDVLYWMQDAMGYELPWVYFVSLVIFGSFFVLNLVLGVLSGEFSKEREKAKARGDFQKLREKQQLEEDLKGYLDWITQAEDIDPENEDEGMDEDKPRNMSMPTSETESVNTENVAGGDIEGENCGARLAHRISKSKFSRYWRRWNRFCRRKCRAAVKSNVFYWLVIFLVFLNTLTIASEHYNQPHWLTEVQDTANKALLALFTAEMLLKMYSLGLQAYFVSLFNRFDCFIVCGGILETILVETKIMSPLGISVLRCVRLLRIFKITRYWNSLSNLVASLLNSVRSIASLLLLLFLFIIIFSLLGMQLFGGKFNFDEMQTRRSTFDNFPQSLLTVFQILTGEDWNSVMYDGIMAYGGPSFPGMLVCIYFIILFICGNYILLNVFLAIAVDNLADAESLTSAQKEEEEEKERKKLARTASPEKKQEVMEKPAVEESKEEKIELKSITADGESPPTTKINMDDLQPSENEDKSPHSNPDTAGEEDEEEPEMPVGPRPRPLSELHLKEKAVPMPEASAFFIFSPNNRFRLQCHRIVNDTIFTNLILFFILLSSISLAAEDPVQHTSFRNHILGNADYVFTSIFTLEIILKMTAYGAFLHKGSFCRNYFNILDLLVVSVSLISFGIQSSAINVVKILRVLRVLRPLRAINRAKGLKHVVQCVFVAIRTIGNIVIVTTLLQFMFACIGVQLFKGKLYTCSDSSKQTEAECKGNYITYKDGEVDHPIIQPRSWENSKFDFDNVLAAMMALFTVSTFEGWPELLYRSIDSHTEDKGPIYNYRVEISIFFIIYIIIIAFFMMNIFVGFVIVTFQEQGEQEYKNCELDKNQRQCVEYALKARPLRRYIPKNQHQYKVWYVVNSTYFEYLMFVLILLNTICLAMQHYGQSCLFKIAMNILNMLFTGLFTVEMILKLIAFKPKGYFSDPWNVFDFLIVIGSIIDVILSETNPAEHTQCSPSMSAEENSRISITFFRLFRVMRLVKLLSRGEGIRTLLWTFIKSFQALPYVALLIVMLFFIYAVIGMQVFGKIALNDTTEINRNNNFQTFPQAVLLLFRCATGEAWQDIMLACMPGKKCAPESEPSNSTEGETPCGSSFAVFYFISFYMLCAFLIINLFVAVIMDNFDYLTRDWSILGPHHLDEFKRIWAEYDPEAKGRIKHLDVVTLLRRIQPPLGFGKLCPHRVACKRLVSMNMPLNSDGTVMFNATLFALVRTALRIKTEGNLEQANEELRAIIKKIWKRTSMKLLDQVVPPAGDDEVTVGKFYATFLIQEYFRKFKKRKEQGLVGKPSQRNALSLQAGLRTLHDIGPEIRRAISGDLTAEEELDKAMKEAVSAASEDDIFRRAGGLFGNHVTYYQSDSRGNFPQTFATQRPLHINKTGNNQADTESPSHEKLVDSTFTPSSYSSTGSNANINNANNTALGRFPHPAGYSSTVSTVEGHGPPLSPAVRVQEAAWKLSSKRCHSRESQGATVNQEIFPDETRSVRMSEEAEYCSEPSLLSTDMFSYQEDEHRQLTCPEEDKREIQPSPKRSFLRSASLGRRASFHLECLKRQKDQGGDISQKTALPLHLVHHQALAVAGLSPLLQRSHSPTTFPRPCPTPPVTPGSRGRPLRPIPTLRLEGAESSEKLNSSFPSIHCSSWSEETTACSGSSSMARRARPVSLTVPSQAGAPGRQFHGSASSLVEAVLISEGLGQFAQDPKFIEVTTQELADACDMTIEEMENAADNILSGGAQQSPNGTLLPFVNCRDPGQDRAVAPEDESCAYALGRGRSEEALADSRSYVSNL
The nature of data set [11]: (§1) Displacement of (-)-[3H]devapamil from L-type calcium channel in rabbit skeletal muscle cells. On the set-up: species or system Oryctolagus cuniculus.
The target in data set [12] is T1, Voltage-gated L-type calcium channel. Kind of data set: Inhibition of L-type calcium channel in Sprague-Dawley rat caudal artery smooth muscle cells at 15 uM by whole cell patch clamp method at -50 mV voltage.
The species entered for data set [13] is Rattus norvegicus. Put plainly: Vasorelaxant activity in Sprague-Dawley rat caudal artery ring assessed as reduction of caffeine-induced muscle contractions at 50 uM in Ca2+-free physiological salt solution. It is filed as functional, tissue-based.
Data set [14] in a line: Displacement of (-)-[3H]devapamil from L-type calcium channel in rabbit smooth skeletal cells relative to verapamil.
The species entered for the next data set is Oryctolagus cuniculus. Described as §1. The note with it: concentration not given here.

The structures appear in SMILES notation. Active and inactive are the calls of the source. The rule behind the calls is not given here.

For the compound `O=C1NC(=O)C2C3c4ccccc4C(c4cccc(Cl)c43)C12` (configuration not stated), the Activity in data set [1] came to 90%. In addition, the result in the data set filed under Rattus norvegicus [2] and in the data set filed under Rattus norvegicus [3] was Active.

On to `N#CC12c3ccccc3C(c3ccccc31)C1C(=O)NC(=O)C12` (configuration not stated), for which the result in the data set listed under Rattus norvegicus [2] and in the data set filed under Rattus norvegicus [3] was Active.

Regarding `O=C1NC(=O)C2C3c4ccccc4C(c4ccc(Cl)cc43)C12` (configuration not stated), the IC50 in [4] amounted to 16.5 µM; in data set [9], 6.3 µM; in data set [10], 19.4 µM; in data set [11], 5.6 µM. Moreover, the Activity result in data set [4] (rat) is reported as “Dose-dependent effect”; in data set [5] it was “tde”; in data set [6], “Active”; in [7], “Active”; in [8] it was “Active”; in [1], 100%. Moreover, in [12], the result was Active. The outcome in the data set listed under Rattus norvegicus [3] and in the data set listed under Rattus norvegicus [13] was inactive.

Consider `C#CCN1C(=O)C2C3c4ccccc4C(c4ccccc43)C2C1=O` (configuration not stated), for which the result in the data set filed under Rattus norvegicus [2] and in the data set listed under Rattus norvegicus [3] was Active.

`O=C1NC(=O)C2C3c4ccccc4C(c4ccccc43)C12` (configuration not stated): the outcome in the data set listed under Rattus norvegicus [2] and in the data set listed under Rattus norvegicus [3] was Active.

Turning to `O=C1NC(=O)C2C1C1c3ccccc3C2(CO)c2ccccc21` (configuration not stated), the result in the data set filed under Rattus norvegicus [2] and in the data set listed under Rattus norvegicus [3] was Active.

With `Cc1ccc2c(c1)C1c3ccccc3C2C2C(=O)NC(=O)C12` (configuration not stated), the Activity in data set [1] amounted to 90%. Further, the result in the data set listed under Rattus norvegicus [2] and in the data set filed under Rattus norvegicus [3] was Active.

In the case of `O=CC12c3ccccc3C(c3ccccc31)C1C(=O)NC(=O)C12` (configuration not stated), the outcome in the data set filed under Rattus norvegicus [2] and in the data set filed under Rattus norvegicus [3] was Active.

As to `O=C1NC(=O)C2C1C1c3ccccc3C2(Cl)c2ccccc21` (configuration not stated), the result in the data set listed under Rattus norvegicus [2] and in the data set filed under Rattus norvegicus [3] was Active.

Regarding `O=C1NC(=O)C2C1C1c3ccccc3C2([N+](=O)[O-])c2ccccc21` (configuration not stated), the result in the data set filed under Rattus norvegicus [2] and in the data set listed under Rattus norvegicus [3] was Active.

With `COc1ccc(CCN(C)CCCC(C#N)(c2ccc(OC)c(OC)c2)C(C)C)cc1OC` (configuration not stated) [VERAPAMIL], the half-inhibitory concentration (IC50) in data set [14] amounted to 0.0602 µM. For the same compound, the inhibition in the data set filed under Oryctolagus cuniculus amounted to 100%.

As for `CC12c3ccccc3C(c3ccccc31)C1C(=O)NC(=O)C12` (configuration not stated), the result in the data set filed under Rattus norvegicus [2] and in the data set filed under Rattus norvegicus [3] was Active.
